Reference: US20170101670A1, “METHOD FOR DETECTING RARE MUTATION” (NATIONAL CANCER CENTER, priority 2015, published 2017)

System: Human TK6 lymphoblasts
Experiment: Induction of point mutation of genomic DNA by mutagen in cultured cells, detected by sequencing 100 copies of genomic DNA
Assay type: cell-based
Details: TK6 cells exposed to 0, 0.1, 0.3, 1, 3, 10 or 30 μM for 24 hours, collected day 7; variants with ratio 0.8 to 10% counted; three independent analyses; FIG. 2
Experimental: In Example 1, N-nitroso-N-methylurea (hereinafter referred to as “MNU”) that was a mutagen was administered to cultured cells, to induce a point mutation of genomic DNA. Then, mutation was detected by the detection method of this embodiment, and the appearance frequency of the mutation was calculated. This analysis was independently performed three times.
Human TK6 lymphoblasts (hereinafter, referred to as “TK6 cell”) were obtained from American Type Culture Collection. On day 0, 1×10^5 cells of TK6 cells were seeded on a 10 cm plate. On day 1, the TK6 cells were exposed to MNU (Sigma) in a concentration of 0, 0.1, 0.3, 1, 3, 10 or 30 μM for 24 hours. On day 7, the number of cells was counted, and the cells were collected. Then, genomic DNA was extracted by phenol/chloroform method.
The copy number of the extracted genomic DNA was determined quantitatively by real-time PCR using SYBR (registered trademark) green I (BioWhittaker Molecular Applications) and iCycler Thermal Cycler (Bio-Rad Laboratories, Inc.). In the table, “F” means a forward primer, and “R” means a reverse primer. Each sample was measured using three kinds of primers. […]
A sample containing 100 copies of genomic DNA was prepared, based on the measurement result of the copy number. […] The average number of reads of sequencing was 5,000. Among the analyzed 48,587 bases, 15,724 bases were selected. […]

CN(N=O)C(N)=O [MNU, N-nitroso-N-methylurea]
appearance frequency of point mutation (somatic mutation induced by mutagen): correlation between the administration amount of MNU and the accumulation of mutations
